# Tests used:
# S. aureus ATCC 6538 = assay: Modified "MIC" test in micro titer trays (liquid medium); type: cell-based, Staphylococcus aureus
# Method: (§1) Potency of Teicoplanin TA2, TA3-1 alone or in combination was determined by agar diffusion assays. Furthermore, the antimicrobial effect of pure and spiked products was investigated through the determination of the minimum inhibitory concentration (MIC) by a modified “MIC” test in micro titer trays.
# Pure TA3-1, (Teicoplanin Material B 96% TA2-X, 4% TA3-1) and mixtures thereof were used. The test strain used was S. aureus ATCC 6538 in final concentrations of 5×10^5/ml and 5×10^4/ml respectively. The test was carried out in micro titer trays as a modification of an ordinary MIC test. Instead of using two-fold dilutions, 0.40-1.20 μg/ml with 0.20 μl divisions and 1.0-4.0 μl/ml with 1.0 μl divisions was used. The trays were incubated at 37° C. The wells were examined after 24 hours and any visible growth was noted.
# In order to strengthen the evidence some experiments were performed with a modified antimicrobial analysis of Teicoplanin, spiked with different amounts of TA3-1. It was carried out in liquid medium in contrast to the agar diffusion tests and determined the MIC values. The results are summarized in Table 4, (“MIC”-values of Teicoplanin and/or TA3-1 on S. aureus ATCC6538).
# (§2) Potency of teicoplanin TA2, TA3-1 alone or in combinations was determined by agar diffusion assays as described in example 1. Modified MIC-values in microtitre trays were determined as described in example 1.
# [1] = tested on: Staphylococcus aureus ATCC 6538; assay: Microbiological potency by agar diffusion; type: cell-based
# Method: Accordingly, in one embodiment a Teicoplanin composition as described herein, has a higher antibiotic activity than a corresponding Teicoplanin composition that has a %(mg TA3)/(mg TA3+TA2) of 6.5%, where the antibiotic activity is measured by a microbiological agar diffusion assay using Staphylococcus aureus ATCC 6538 as test strain and the measured potential potency (IU per mg TA2+TA3/g composition) is used to calculate the antibiotic activity.
# Procedure for the Determination of Microbiological Potency by Agar Diffusion
# as §1
# The potency test is carried out according to the assay described below. […]
# The results are analyzed by reading the zone diameters carefully with a 10× magnification and a precision of 0.1 mm. […]
# as §2
smiles,measurement,setting,value
"CC(=O)N[C@H]1[C@H](O[C@@H]2c3ccc(c(Cl)c3)Oc3cc4cc(c3O)Oc3ccc(cc3Cl)C[C@H]3NC(=O)[C@H](N)c5ccc(O)c(c5)Oc5cc(O)cc(c5)[C@H](NC3=O)C(=O)N[C@H]4C(=O)N[C@H]3C(=O)N[C@@H]2C(=O)N[C@H](C(=O)O)c2cc(O)cc(O[C@H]4O[C@H](CO)[C@@H](O)[C@H](O)[C@@H]4O)c2-c2cc3ccc2O)O[C@H](CO)[C@@H](O)[C@@H]1O [TA3-1, Teicoplanin A3-1]",MIC value relative to Targocid alone (times higher),"S. aureus ATCC 6538; Example 2, FIG. 6, MIC in μg powder/ml solution",4-5 times
same,MIC (μg/ml) 5 × 10^4/ml S.aureus,"S. aureus ATCC 6538; inoculum 5 × 10^4/ml, 37° C., read after 24 hours, lowest concentration without visible growth",2–3 μg/ml
same,MIC (μg/ml) 5 × 10^5/ml S.aureus,"S. aureus ATCC 6538; inoculum 5 × 10^5/ml, 37° C., read after 24 hours, lowest concentration without visible growth",2–3 μg/ml
same,Potency IU/mg powder,"[1]; Example 1, agar diffusion, 2-point assay, potency of the powder as such",570 IU/mg powder
same,potency by agar diffusion (IU/mg powder) compared with Targocid alone,"[1]; Example 2, FIG. 5, Targocid/TA3-1 solutions mixed at different mass TA3-1%",much lower potency

# — patent US7981859B2, “Glycopeptide composition with improved antibiotic activity” (Xellia Pharmaceuticals APS, priority 2003, dated 2011)
